Patent US20100063047A1 (KALYPSYS, INC., priority 2008, published 2010)

Key:
human H1 = biological target: T1, human H1 (Homo sapiens, UniProt P35367); assay: In vitro histamine H1 receptor cell-based aequorin bioluminescence antagonist assay; conditions: CHO-K1 cells expressing human H1 and aequorin; histamine at EC80; read-out: H1 Antagonist EC50
T1 construct: host or cells: CHO-K1, also expressing mitochondrion-targeted aequorin
How it was run: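 CHO-K1 cells stably expressing human H1 or H4 plus mitochondrial aequorin (H4 also with Gα16), loaded with 5 μM coelenterazine-h for 4 h at ~21 °C. Compounds preincubated 15 min at room temperature, then histamine at EC80 added.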

human H4 = biological target: T2, human H4 (Homo sapiens, UniProt Q9H3N8); assay: In vitro histamine H4 receptor cell-based aequorin bioluminescence antagonist assay; conditions: CHO-K1 cells expressing human H4, aequorin and Gα16; histamine at EC80
T2 construct: host or cells: CHO-K1, also expressing mitochondrion-targeted aequorin and human Gα16
T2 sequence (Q9H3N8 whole entry): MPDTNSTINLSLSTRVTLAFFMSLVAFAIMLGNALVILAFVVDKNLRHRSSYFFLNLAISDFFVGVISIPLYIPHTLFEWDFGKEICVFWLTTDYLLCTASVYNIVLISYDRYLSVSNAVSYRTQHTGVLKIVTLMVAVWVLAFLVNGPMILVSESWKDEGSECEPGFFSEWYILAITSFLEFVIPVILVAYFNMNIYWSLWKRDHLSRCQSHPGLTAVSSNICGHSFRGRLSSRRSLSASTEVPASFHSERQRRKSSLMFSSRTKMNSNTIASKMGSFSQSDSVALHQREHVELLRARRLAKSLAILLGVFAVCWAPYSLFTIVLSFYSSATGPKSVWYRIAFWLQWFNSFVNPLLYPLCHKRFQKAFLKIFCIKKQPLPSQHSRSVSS
Experimental: In vitro Histamine Receptor Cell-Based Assays
The cell-based assays utilize an aequorin dependent bioluminescence signal. Doubly-transfected, stable CHO—K1 cell lines expressing human H1 or H4, mitochondrion-targeted aequorin, and (H4 only) human G protein Gα16 are obtained from Perkin-Elmer. Cells are maintained in F12 (Ham's) growth medium, containing 10% (vol./vol.) fetal bovine serum, penicillin (100 IU/mL), streptomycin (0.1 mg/mL), zeocin (0.25 mg/mL) and geneticin (0.40 mg/mL). Cell media components are from Invitrogen, Inc. One day prior to assay, the growth medium is replaced with the same, excluding zeocin and geneticin.
For assay preparation, growth medium is aspirated, and cells are rinsed with calcium-free, magnesium-free phosphate-buffered saline, followed by two to three minute incubation in Versene (Invitrogen, Inc.) at 37° C. Assay medium (DMEM:F12 [50:50], phenol-red free, containing 1 mg/mL protease-free bovine serum albumin) is added to collect the released cells, which are then centrifuged. The cell pellet is re-suspended in assay medium, centrifuged once more, and re-suspended in assay medium to a final density of 5×10^6 cells/mL. Coelenterazine-h dye (500 μM in ethanol) is added to a final concentration of 5 μM, and mixed immediately. The conical tube containing the cells is then wrapped with foil to protect the light-sensitive dye. The cells are incubated for four hours further at room temperature (approximately 21° C.) with end-over-end rotation to keep them in suspension.
Just before assay, the dye-loaded cells are diluted to 0.75×10^6 cells/mL (H1 receptor) or 1.5×10^6 cells/mL (H4 receptor) with additional assay medium. Cells are dispensed to 1536 well micro-titer plates at 3 μL/well. To assay receptor antagonism, 60 nl of 100× concentration test compounds in 100% dimethyl sulfoxide (DMSO) are dispensed to the wells, one compound per well, by passive pin transfer, and the plates are incubated for 15 minutes at room temperature. […] The pipette dispenses 3 μL/well of agonist (histamine, at twice the final concentration, where final concentration is a previously determined EC80) in assay medium, with concurrent bioluminescence detection. Agonist activity of test compounds is excluded by separate assays that measure response to test compounds immediately, without added histamine agonist.
CCD image capture on the Lumilux includes a 5 second baseline read prior to agonist addition, and generally a 40 second read per plate after agonist addition. A decrease in bioluminescence signal (measured either as area-under-the-curve, or maximum signal amplitude minus minimum signal amplitude) correlates with receptor antagonism in a dose dependent manner. The negative control is DMSO lacking any test compound. For antagonist assays, the positive controls are diphenhydramine (2-Diphenylmethoxy-N,N-dimethylethylamine, 10 μM final concentration, H1 receptor) or JNJ7777120 (1-[(5-Chloro-1H-indol-2-yl)carbonyl]-4-methyl-piperazine, 10 μM final concentration, H4 receptor). Efficacy is measured as a percentage of positive control activity.

T1 sequence (P35367 whole entry): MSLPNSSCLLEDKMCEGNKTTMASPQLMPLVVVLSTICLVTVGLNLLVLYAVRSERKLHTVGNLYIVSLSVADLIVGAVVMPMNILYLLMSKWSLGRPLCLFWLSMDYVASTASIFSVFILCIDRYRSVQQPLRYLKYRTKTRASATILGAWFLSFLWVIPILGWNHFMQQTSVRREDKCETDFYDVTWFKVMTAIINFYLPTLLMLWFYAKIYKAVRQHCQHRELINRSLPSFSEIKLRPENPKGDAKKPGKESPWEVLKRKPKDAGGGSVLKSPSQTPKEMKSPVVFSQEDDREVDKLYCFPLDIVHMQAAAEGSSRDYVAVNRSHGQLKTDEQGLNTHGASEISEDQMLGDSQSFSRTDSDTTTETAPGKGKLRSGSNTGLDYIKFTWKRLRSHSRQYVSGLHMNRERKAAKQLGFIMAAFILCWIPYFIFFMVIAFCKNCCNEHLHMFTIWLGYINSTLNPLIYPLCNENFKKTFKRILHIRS

Cc1csc2ncnc(NCCCO)c12 [Example 62, 3-({5-methylthieno[2,3-d]pyrimidin-4-yl}amino)propan-1-ol] was tested, and the EC50 (human H1) was > 10 µM and the EC50 (human H4) was > 10 µM.
With Cc1csc2ncnc(N3CCN(c4ccccc4Cl)CC3)c12 [Example 3, 4-(4-(2-chlorophenyl)piperazin-1-yl)-5-methylthieno[2,3-d]pyrimidine] the EC50 (human H1) was > 10 µM and the EC50 (human H4) was > 10 µM.
In the case of CCN(CCCCO)c1ncnc2scc(C)c12 [Example 207, 4-[ethyl({5-methylthieno[2,3-d]pyrimidin-4-yl})amino]butan-1-ol], the EC50 (human H1) is reported as > 10 µM and the EC50 (human H4) is reported as > 10 µM.
C#CCN(C)c1ncnc2scc(C)c12 [Example 180, N,5-dimethyl-N-(prop-2-yn-1-yl)thieno[2,3-d]pyrimidin-4-amine] was tested, and the EC50 (human H1) was > 10 µM and the EC50 (human H4) was > 10 µM.
In the case of Cc1csc2ncnc(N3CCN(c4ccc(O)cc4)CC3)c12 [Example 243, 4-(4-{5-methylthieno[2,3-d]pyrimidin-4-yl}piperazin-1-yl)phenol], the EC50 (human H1) is reported as > 10 µM and the EC50 (human H4) is reported as > 10 µM.
For Cc1csc2ncnc(N3CCN(c4ccccc4F)CC3)c12 [Example 245, 1-(2-fluorophenyl)-4-{5-methylthieno[2,3-d]pyrimidin-4-yl}piperazine], the EC50 (human H1) was > 10 µM and the EC50 (human H4) was > 10 µM.
COCCNc1ncnc2scc(C)c12 [Example 64, N-(2-methoxyethyl)-5-methylthieno[2,3-d]pyrimidin-4-amine] was tested, and the EC50 (human H1) was > 10 µM and the EC50 (human H4) was > 10 µM.
With CCCN(CCC)c1ncnc2scc(C)c12 [Example 196, 5-methyl-N,N-dipropylthieno[2,3-d]pyrimidin-4-amine] the EC50 (human H1) was > 10 µM and the EC50 (human H4) was > 10 µM.
COc1ccc(N2CCN(c3ncnc4scc(C)c34)CC2)cc1 [Example 261, 1-(4-methoxyphenyl)-4-{5-methylthieno[2,3-d]pyrimidin-4-yl}piperazine] was tested, and the EC50 (human H1) was > 10 µM and the EC50 (human H4) was > 10 µM.
With Cc1csc2ncnc(N3CCN(C(=O)OC(C)(C)C)C[C@H]3CO)c12 [Example 283, tert-butyl (3S)-3-(hydroxymethyl)-4-{5-methylthieno[2,3-d]pyrimidin-4-yl}piperazine-1-carboxylate] the EC50 (human H1) was > 10 µM and the EC50 (human H4) was > 10 µM.
With Cc1csc2ncnc(N3CCN(c4cccc(C(F)(F)F)c4)CC3)c12 [Example 288, 1-{5-methylthieno[2,3-d]pyrimidin-4-yl}-4-[3-(trifluoromethyl)phenyl]piperazine] the EC50 (human H1) was > 10 µM and the EC50 (human H4) was > 10 µM.
In the case of Cc1csc2ncnc(N3CC(C)CC(C)C3)c12 (stereo not drawn) [Example 199, 3,5-dimethyl-1-{5-methylthieno[2,3-d]pyrimidin-4-yl}piperidine], the EC50 (human H1) is reported as > 10 µM and the EC50 (human H4) is reported as > 10 µM.
Cc1ccc([C@@H](C)Nc2ncnc3scc(C)c23)cc1 [Example 115, 5-methyl-N-[(1R)-1-(4-methylphenyl)ethyl]thieno[2,3-d]pyrimidin-4-amine] was tested, and the EC50 (human H1) was > 10 µM and the EC50 (human H4) was > 10 µM.
For Cc1csc2ncnc(C(=O)NCc3ccc(Cl)cc3)c12 [Example 34, N-(4-chlorobenzyl)-5-methylthieno[2,3-d]pyrimidine-4-carboxamide], the EC50 (human H1) was > 10 µM and the EC50 (human H4) was > 10 µM.
In the case of Cc1csc2ncnc(N(C)C[C@H](O)c3ccc(O)c(O)c3)c12 [Example 248, 4-[(1R)-1-hydroxy-2-[methyl({5-methylthieno[2,3-d]pyrimidin-4-yl})amino]ethyl]benzene-1,2-diol], the EC50 (human H1) is reported as > 10 µM and the EC50 (human H4) is reported as > 10 µM.
Cc1csc2ncnc(NCC#N)c12 [Example 52, 2-({5-methylthieno[2,3-d]pyrimidin-4-yl}amino)acetonitrile] was tested, and the EC50 (human H1) was > 10 µM and the EC50 (human H4) was > 10 µM.
For Cc1cnc(CNc2ncnc3scc(C)c23)cn1 [Example 101, 5-methyl-N-[(5-methylpyrazin-2-yl)methyl]thieno[2,3-d]pyrimidin-4-amine], the EC50 (human H1) was > 10 µM and the EC50 (human H4) was > 10 µM.
With COc1ccc(CCN(C)c2ncnc3scc(C)c23)cc1OC [Example 264, N-[2-(3,4-dimethoxyphenyl)ethyl]-N,5-dimethylthieno[2,3-d]pyrimidin-4-amine] the EC50 (human H1) was > 10 µM and the EC50 (human H4) was > 10 µM.
